We go through 7 molecules from US9937235B2, “Lipidated peptides as anti-obesity agents” (USTAV ORGANICKE CHEMIE A BIOCHEMIE AKADEMIE VED CR, V.V.I, priority 2012, dated 2018).

Where a SMILES comes first, the peptide text is derived from it. Where no end group is shown, it is not given here. [ ]: non-standard residue; d: D form. The star is where a group is joined. Myristoyl = CCCCCCCCCCCCCC(=O)*; Nle = CCCC[C@H](N)C(=O)O; Dap = NC[C@H](N)C(=O)O

Assay [1] deals with T1, rat PrRP receptor (GPR10) in RC-4B/C cells (Rattus norvegicus, UniProt Q64121).
T1 construct: The rat pituitary cell line RC-4B/C (ATCC, Manassas, USA) was grown on 24-well plates; host or cells: RC-4B/C rat pituitary cell line
T1 sequence (Q64121 1-370): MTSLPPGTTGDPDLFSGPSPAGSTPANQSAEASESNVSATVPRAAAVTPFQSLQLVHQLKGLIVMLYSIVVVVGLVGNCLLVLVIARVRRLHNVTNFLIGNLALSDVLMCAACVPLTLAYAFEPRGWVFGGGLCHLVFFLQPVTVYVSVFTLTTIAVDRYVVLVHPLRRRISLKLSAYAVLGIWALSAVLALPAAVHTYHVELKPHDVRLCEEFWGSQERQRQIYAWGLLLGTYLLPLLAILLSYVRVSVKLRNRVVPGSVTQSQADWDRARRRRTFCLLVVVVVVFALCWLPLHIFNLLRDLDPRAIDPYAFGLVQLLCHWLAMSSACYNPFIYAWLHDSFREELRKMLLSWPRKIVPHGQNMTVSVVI
Particulars: Maletínská et al., 2011; cited from earlier work.

For assay [2], the system named is fasted C57BL/6 mice. Description: Food intake in fasted mice after SC administration. The format is in vivo, mouse. The note with it: for food intake / % control: SC administration, dose not stated for these substances; for % control: food intake vs saline. The method in brief: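 Male C57BL/6 mice, food-deprived 17 h, received saline, PrRP or lipidated analogs either SC at 1-10 mg/kg or ICV into the third ventricle at 4 nmol/mouse.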

For the next assay, the system named is Rhesus monkey. The format is in vivo. Particulars: single SC 1.0 mg/kg or 2.0 mg/kg, overnight fasted, between 1-6 hours, vs saline. The method, then: Food intake (amount of pellets consumed) was measured in Rhesus monkey (n=4) after a single subcutaneous administration of myristoylated human PrRP20 (analog no. 55).
The study was conducted on overnight fasted animals in Meditox breeding facility (Konárovice, Czech Republic). Each animal received a subcutaneous injection of saline, or of analog 55 in a dose of 1.0 mg/kg or 2.0 mg/kg. Test item formulation was prepared in saline solution as a fresh solution, just before dosing. […] Food intake monitoring was performed 2, 4, 8 and 24 hours after single administration. […] While preferred embodiments of the present invention have been shown and described herein, it will be obvious to those skilled in the art that such embodiments are provided by way of example only. Numerous variations, changes, and substitutions will now occur to those skilled in the art without departing from the invention. It should be understood that various alternatives to the embodiments of the invention described herein may be employed in practicing the invention. It is intended that the following claims define the scope of the invention and that methods and structures within the scope of these claims and their equivalents be covered thereby.

Assay [3] has as its target T1, rat PrRP receptor (GPR10) in RC-4B/C cells. Description: Competitive binding to rat pituitary RC-4B/C cells. Particulars: ^125I-rat PrRP31, RC-4B/C cells.
In assay [4] the test system is MAPK/ERK1/2 signaling pathway in RC-4B/C cells. Description: MAPK/ERK1/2 signaling in RC-4B/C cells (Western blot). The format is cell-based, rat. The note with it: 10^−6 mol·l^−1, 5 minute incubation. A general note: A western blot detects proteins with antibodies after separation by electrophoresis.
Assay [5] has as its system fasted C57BL/6 mice. Description: Food intake in fasted mice after ICV administration. The format is in vivo. Particulars: 4 nmol/mouse; for % control: food intake vs saline. Here is the method: Male C57BL/6 mice (An Lab, Prague 4) were bred in the accredited animal facility in the Institute of Organic Chemistry and Biochemistry, Czech Academy of Sciences, Prague, at the Institute of Molecular Genetics, Prague 4, at the temperature of 22±2° C. with access to food and water ad libitum. The day/night cycle was 12/12 hours (light turned on at 6:00 am). Animals were treated according to the Animal Protection Act (Act No. 246/1992). The males were fed standard chow diet St-1 (Mlýn Kocanda, Praha, Czech Republic) which contained 66% saccharides, 25% proteins and 9% lipids with a caloric value of 3.4 kcal/g.
The food was withdrawn 17 hours prior to injection of lipidated peptide and free access to water was maintained. The administration of saline, PrRP or lipidated analogs was performed either by SC injection at doses of 1-10 mg/kg (volume 0.2 ml/mouse), or by ICV using infusion pump (cannulae were inserted into the third brain ventricle 4 days before the experiment following the procedure of Maixnerová et al. (Maixnerová et al., 2011)). The single dose of peptide was 4 nmol/mouse (5 μl/mouse).
Fifteen minutes after the lipidated peptide administration, the mice were given pre-weighed food. The food was then weighed every 30 minutes for 5-10 hours. The administration of every dose was performed at least twice and one group of mice consisted of at least 6 mice. The results were presented as % of food intake as compared with the control group injected with saline.
Statistical evaluation was performed using program Graph-Pad Prism Software (San Diego, Calif., USA), and the one-way ANOVA with a subsequent Dunnettovým post-hoc test. The difference in food intake between mice injected with saline and mice injected with the examined peptide were considered statistically significant at P<0.05.

The test system of another assay is rats. The note with it: ICV, third brain ventricle, Lawrence et al.; cited from earlier work.
The subject of assay [6] is fasted C57BL/6 mice. Particulars: central administration, Maixnerová et al., 2011; cited from earlier work.
The target in assay [7] is T2, rat PrRP receptor in RC-4B/C cells (rat, UniProt Q64121 1-370).
T2 construct: whole, on cells; also called the rat receptor; GPR10
T2 sequence (looked up): T1 sequence (Q64121 1-370)
Description: competition with 125I-rat PrRP31 on RC-4B/C cells.

For assay [8], the target named is T2, rat PrRP receptor in RC-4B/C cells. Description: competition with 125I-rat PrRP31 on RC-4B/C cells; Ki by Cheng-Prusoff. Here is the method: The rat pituitary cell line RC-4B/C (ATCC, Manassas, USA) was grown on 24-well plates which had their bottom coated with polyethyleneimine. The cells were grown to the optimal density of 300-450 thousand per well.
Plates were incubated for 60 minutes at room temperature. After incubation, the cells were solubilized in 0.1 mol/l solution of NaOH and the radioactivity bound to the cells was counted using a γ-counter. The experiments were performed in duplicate and repeated at least three times.

The target is the same in assay [9]. Description: competition with 125I-human PrRP31 on RC-4B/C cells; Ki by Cheng-Prusoff.
In assay [10] the target is T3, human PrRP receptor, GPR10, transfected in CHO cells (human, UniProt P49683 1-370).
T3 construct: whole, on cells; also called human GPR10 receptor; the human receptor GPR10 in CHO cells
T3 sequence (looked up): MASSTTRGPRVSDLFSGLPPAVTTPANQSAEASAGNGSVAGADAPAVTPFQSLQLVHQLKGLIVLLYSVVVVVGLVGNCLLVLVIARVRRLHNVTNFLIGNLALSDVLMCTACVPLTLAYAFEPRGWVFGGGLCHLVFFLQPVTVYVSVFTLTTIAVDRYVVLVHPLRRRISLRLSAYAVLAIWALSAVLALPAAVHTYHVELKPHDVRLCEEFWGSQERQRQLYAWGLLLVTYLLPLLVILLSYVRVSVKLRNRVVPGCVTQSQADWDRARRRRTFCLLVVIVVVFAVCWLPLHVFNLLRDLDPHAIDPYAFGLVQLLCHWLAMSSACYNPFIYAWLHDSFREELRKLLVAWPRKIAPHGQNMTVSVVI
Description: competition with 125I-human PrRP31 on CHO cells with transfected human GPR10. An outline of the steps:
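Incubation lasted 60 min at room temperature. Cells were then solubilised in 0.1 mol/l NaOH and bound radioactivity γ-counted; duplicates, at least three repeats.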

As to “[Tyr^31]PrRP20: N-acetylated PrRP20 analog, C-terminal phenylalanine replaced by tyrosine (Maletínská et al., 2011) (Ac-TPDINPAWYASRGIRPVGRY-NH2; ends and bridges not checked; UniProt P81277 34-53, looked up, variant F31Y)”, the “Kb of binding to the pituitary cell line RC-4B/C” value in assay [1] was “comparable to values for PrRP31 and PrRP20”.
Consider `CCCCCCCCCCCCCC(=O)N[C@H](C(=O)N1CCC[C@H]1C(=O)N[C@@H](CC(=O)O)C(=O)N[C@H](C(=O)N[C@@H](CC(N)=O)C(=O)N1CCC[C@H]1C(=O)N[C@@H](C)C(=O)N[C@@H](Cc1c[nH]c2ccccc12)C(=O)N[C@@H](Cc1ccc(O)cc1)C(=O)N[C@@H](C)C(=O)N[C@@H](CO)C(=O)N[C@@H](CCCNC(=N)N)C(=O)NCC(=O)N[C@H](C(=O)N[C@@H](CCCNC(=N)N)C(=O)N1CCC[C@H]1C(=O)N[C@H](C(=O)NCC(=O)N[C@@H](CCCNC(=N)N)C(=O)N[C@@H](Cc1ccccc1)C(N)=O)C(C)C)[C@@H](C)CC)[C@@H](C)CC)[C@@H](C)O` [Analog 55] (Myristoyl-TPDINPAWYASRGIRPVGRF-NH2), for which, in the assay on fasted C57BL/6 mice [2] (fasted C57BL/6 mice, 5 mg/kg SC, 45 min), the “Food intake in mice (5 mg/kg SC) % saline-treated group (45 min)” value is 10%. In the assay with Rhesus monkey, the “Food intake (amount of pellets consumed)” value is “Significantly lower food intake”.
“SRAHQHSMETRTPDINPAWYTGRGIRPVGRF-NH2 [PrRP31, reference compound]”: in [3], the “% of PrRP31 binding” value is recorded as 100%. In assay [4], the ERK signaling entry is on record as “agonist”. The “food intake” value worked out at 0.32 g in the assay on fasted C57BL/6 mice [2] (45 minutes), 1.15 g in the assay with fasted C57BL/6 mice [2] (300 minutes), 0.42 g in the assay on fasted C57BL/6 mice [5] (45 minutes) and 1.37 g in the assay on fasted C57BL/6 mice [5] (300 minutes). The “% control” value in the assay with fasted C57BL/6 mice [2] (45 minutes) stood at 100%; in the assay with fasted C57BL/6 mice [2] (300 minutes) it was 105%; in the assay on fasted C57BL/6 mice [5] (45 minutes), 75%; in the assay with fasted C57BL/6 mice [5] (300 minutes), 104%. Moreover, the “food intake in rats” value in the assay on rats is given as “significant lowering of food intake”.
On to “PrRP13: tridecapeptide PrRP13 (containing amino acids 18 to 31 of PrRP31) (AWYASRGIRPVGRF; ends and bridges not checked; UniProt P81277 40-53, looked up, fragment)”, for which, in the assay with fasted C57BL/6 mice [6], the “anorexigenic activity in mice” value is on record as “not sufficient for maintaining the anorexigenic activity”.
Turning to SRTHRHSMEIRTPDINPAWYASRGIRPVGRF-NH2 (also called hPrRP31; analog no; 50) [Human PrRP31], the Ki – broadly, the equilibrium dissociation constant of an inhibitor or competing ligand from its target – in assay [7] amounted to 1.78 nM; in assay [8] it was 1.54 nM; in assay [9] it was 3.01 nM.

B1: analog no. 11 (peptide)
peptide: [Dap]RTHRHS[Nle]EIRTPDINPAWYASRGIRPVGRF-NH2
modifications: N-terminus assumed
SMILES: CCCC[C@H](NC(=O)[C@H](CO)NC(=O)[C@H](Cc1c[nH]cn1)NC(=O)[C@H](CCCNC(=N)N)NC(=O)[C@H](Cc1c[nH]cn1)NC(=O)[C@@H](NC(=O)[C@H](CCCNC(=N)N)NC(=O)[C@@H](N)CN)[C@@H](C)O)C(=O)N[C@@H](CCC(=O)O)C(=O)N[C@H](C(=O)N[C@@H](CCCNC(=N)N)C(=O)N[C@H](C(=O)N1CCC[C@H]1C(=O)N[C@@H](CC(=O)O)C(=O)N[C@H](C(=O)N[C@@H](CC(N)=O)C(=O)N1CCC[C@H]1C(=O)N[C@@H](C)C(=O)N[C@@H](Cc1c[nH]c2ccccc12)C(=O)N[C@@H](Cc1ccc(O)cc1)C(=O)N[C@@H](C)C(=O)N[C@@H](CO)C(=O)N[C@@H](CCCNC(=N)N)C(=O)NCC(=O)N[C@H](C(=O)N[C@@H](CCCNC(=N)N)C(=O)N1CCC[C@H]1C(=O)N[C@H](C(=O)NCC(=O)N[C@@H](CCCNC(=N)N)C(=O)N[C@@H](Cc1ccccc1)C(N)=O)C(C)C)[C@@H](C)CC)[C@@H](C)CC)[C@@H](C)O)[C@@H](C)CC
notes: analog of human PrRP31
Take B1: the results for the Ki in assay [8] and in [9] were 2.28 nM and 2 nM, respectively.

B2: myristoylated human PrRP20 (analog no. 55) (peptide)
peptide: Myristoyl-TPDINPAWYASRGIRPVGRF-NH2
SMILES: CCCCCCCCCCCCCC(=O)N[C@H](C(=O)N1CCC[C@H]1C(=O)N[C@@H](CC(=O)O)C(=O)N[C@H](C(=O)N[C@@H](CC(N)=O)C(=O)N1CCC[C@H]1C(=O)N[C@@H](C)C(=O)N[C@@H](Cc1c[nH]c2ccccc12)C(=O)N[C@@H](Cc1ccc(O)cc1)C(=O)N[C@@H](C)C(=O)N[C@@H](CO)C(=O)N[C@@H](CCCNC(=N)N)C(=O)NCC(=O)N[C@H](C(=O)N[C@@H](CCCNC(=N)N)C(=O)N1CCC[C@H]1C(=O)N[C@H](C(=O)NCC(=O)N[C@@H](CCCNC(=N)N)C(=O)N[C@@H](Cc1ccccc1)C(N)=O)C(C)C)[C@@H](C)CC)[C@@H](C)CC)[C@@H](C)O
notes: also called analog no; 13
As for B2, the Ki in [7] worked out at 0.48 nM; in [8], 0.41 nM; in assay [9], 0.66 nM; in assay [10], 4.33 nM.
